Data reported in patent publication US10238685B2, “Compositions containing polymeric sulfur and uses thereof” (Johnson & Johnson Consumer Inc., priority 2015, dated 2019).
Read-outs that look alike come from different tables or passages of the source.

How the values were obtained:
Format in all cases: cell-based
[1] = test system: IL-1α pro-inflammatory cytokine release; experiment: IL-1α cytokine release in human skin equivalents (EPI 200 HCF-PRF)
Protocol: The potential to induce the pro-inflammatory cytokine release IL1-a by either the polymeric sulfur (Sn) and of regular sulfur (S) were evaluated in human skin equivalents. Human skin equivalents (EPI 200 HCF-PRF), multilayer and differentiated epidermis consisting of normal human epidermal keratinocytes, were purchased from MatTek (Ashland, Mass.). Upon receipt, skin equivalents were incubated for 24 hours at 37° C. in maintenance medium without hydrocortisone. Equivalents were topically treated (0.1%, 1% and 10%) with either polymeric sulfur (IS-90, Wuxi Wanli Chemical, China) or regular sulfur (S, Sigma-Aldrich, St Louis, Mo., USA) in 70% ethanol/30% propylene glycol vehicle, and compared to either vehicle alone used as negative control, or to the 10 mM SDS used as positive control. Equivalents were incubated for 48 hours at 37° C. with maintenance medium then supernatants were analyzed for IL-1α pro-inflammatory cytokine release using MILLIPLEX®MAP kit (Millipore Corp., Billerica, Mass.).

IL-8 cytokine release = IL-8 cytokine release in normal human epidermal keratinocytes
Protocol: The irritation/inflammatory/mildness potential of polymeric sulfur (Sn) and of regular sulfur (S) were evaluated in-vitro in human primary cell cultures. Normal human epidermal keratinocytes were purchased from Promocell (Heidelberg, Germany). The cells were plated in 24-well tissue culture treated plates at a density of 30,000 cells/well in Lonza KGM-Gold BulletKit without hydrocortisone (Lonza, Walkersville, Md., USA). After 48 hours, cells were treated with the actives described below: Polymeric form of sulfur (Wuxi Wanli Chemical, China) and the regular form of sulfur (Sigma-Aldrich, St Louis, Mo.) at indicated concentrations for 24 hours, following which supernatants were collected and analyzed for IL-8 and IL-1α cytokine release using MILLIPLEX®MAP kit (Millipore Corp., Billerica, Mass.).

[2] = test system: Propionibacterium acnes ATCC 6919; experiment: Antimicrobial Efficacy Test - Microcentrifuge Tube Method, P. acnes; details: for Log / cfu/ml / log reduction: 30 minute exposure
Protocol: (§1) For efficacy studies against Propionibacterium acnes, Staphylococcus aureus, and Escherichia coli 1% test sample suspensions [Sulfur (S) Sigma or Polymeric Sulfur (Sn) IS90 from Wuxi Wanli Chemical, China] were prepared as w/v in Butterfield's Phosphate Buffer. Serial dilutions of 1:10 were performed v/v for lower concentrations. Aliquots were then pipetted into microcentrifuge tube for exposure to test organism. Concentrations of 10% and 5% for testing against Aspergillus brasiliensis were weighed and diluted directly in microcentrifuge tubes. Each test organism was standardized to concentration of 10E6 cfu/ml. Test sample was inoculated as 1:10 (0.1 ml inoculum to 0.9 ml sample) for final concentration of 10E5 cfu/ml sample. Buffer control sample was included and used to calculate log reduction for each test sample. After inoculation, study tubes were placed at 37° C. (±2° C.), shaking at 1000 rpm for set exposure time (30 minutes, 1 hour or 3 hours). At completion of exposure time, each tube was centrifuged for 10 seconds to settle test material out of suspension. Aliquot of fluid was removed, serial diluted and plated for recovery of viable organisms. Each organism was plated on appropriate media and incubated at proper temperature and length of time before counting recoveries.

[3] = test system: Staphylococcus aureus ATCC 6538; experiment: Antimicrobial Efficacy Test - Microcentrifuge Tube Method, S. aureus; details: for Log / cfu/ml / log reduction: 60 minute exposure
Protocol: as §1

[4] = test system: Escherichia coli ATCC 8739; experiment: Antimicrobial Efficacy Test - Microcentrifuge Tube Method, E. coli; details: for Log / cfu/ml / log reduction: 30 minute exposure
Protocol: as §1

[5] = test system: Aspergillus brasiliensis ATCC 16404; experiment: Antimicrobial Efficacy Test - Microcentrifuge Tube Method, A. brasiliensis; details: for Log / cfu/ml / log reduction: 3 hour exposure
Protocol: as §1

[6] = test system: IL-22-induced IL-8 cytokine release; experiment: IL-22-induced IL-8 cytokine release in normal human epidermal keratinocytes
Protocol: The anti-inflammatory potential of polymeric sulfur (Sn) and of regular sulfur (S) were evaluated in-vitro in human primary epidermal cell cultures. Normal human epidermal keratinocytes were purchased from Promocell (Heidelberg, Germany). The cells were plated in 24-well tissue culture treated plates at a density of 30,000 cells/well in Lonza KGM-Gold Bullet Kit without hydrocortisone (Lonza, Walkersville, Md.). After 48 hours, cells were treated with the actives described below: Polymeric form of sulfur (IS-90, Wuxi Wanli Chemical, China) and the regular form of sulfur (Sigma-Aldrich, St Louis, Mo., USA) at indicated concentrations, either in the presence or absence of the pro-inflammatory cytokine IL-22 (R&D Systems, Minneapolis, Minn.) 20 ng/ml. Following the treatment period of 24 hrs, the cell culture media supernatants were collected and analyzed for IL-8 cytokine release using MILLIPLEX®MAP kit (Millipore Corp., Billerica, Mass.).

Polymeric Sulfur [Sn]
stimulation of pro-inflammatory cytokine IL-1α (FIG. 2) [1]: did not induce the production of IL-1α to the same extent
stimulation of pro-inflammatory cytokine IL-8 vs untreated control cells (FIG. 3) (IL-8 cytokine release): showed significantly lower stimulation of the pro-inflammatory cytokine IL-8

S1SSSSSSS1 [S, Sulfur]
Log ([2]; 0.001%): 5.3
cfu/ml ([2]; 0.001%): 2.0E+05 cfu/ml
log reduction ([2]; 0.001%): 0.1
Log ([2]; 0.01%): 5.3
cfu/ml ([2]; 0.01%): 1.9E+05 cfu/ml
log reduction ([2]; 0.01%): 0.1
Log ([2]; 0.1%): 5.3
cfu/ml ([2]; 0.1%): 1.8E+05 cfu/ml
log reduction ([2]; 0.1%): 0.1
Log ([2]; 1% w/v): 5.2
cfu/ml ([2]; 1% w/v): 1.6E+05 cfu/ml
log reduction ([2]; 1% w/v): 0.2
antimicrobial efficacy, conclusion ([2]; at 0.01% or 0.001%): Neither form was efficacious
Log ([3]; 0.001%): 4.0
cfu/ml ([3]; 0.001%): 9.1E+03 cfu/ml
log reduction ([3]; 0.001%): 1.4
Log ([3]; 0.01%): 4.0
cfu/ml ([3]; 0.01%): 1.0E+04 cfu/ml
log reduction ([3]; 0.01%): 1.4
Log ([3]; 0.1%): 3.5
cfu/ml ([3]; 0.1%): 3.0E+03 cfu/ml
log reduction ([3]; 0.1%): 1.9
Log ([3]; 1% w/v): 5.3
cfu/ml ([3]; 1% w/v): 2.1E+05 cfu/ml
log reduction ([3]; 1% w/v): 0.1
antimicrobial efficacy, conclusion ([3]; at 0.1%): the forms were equivalent
Log ([4]; 0.001%): 6.1
cfu/ml ([4]; 0.001%): 1.3E+06 cfu/ml
log reduction ([4]; 0.001%): 0.1
Log ([4]; 0.01%): 6.1
cfu/ml ([4]; 0.01%): 1.3E+06 cfu/ml
log reduction ([4]; 0.01%): 0.1
Log ([4]; 0.1%): 6.1
cfu/ml ([4]; 0.1%): 1.4E+06 cfu/ml
log reduction ([4]; 0.1%): 0.1
Log ([4]; 1% w/v): 6.2
cfu/ml ([4]; 1% w/v): 1.5E+06 cfu/ml
log reduction ([4]; 1% w/v): 0.0
antimicrobial efficacy, conclusion ([4]; at 0.1%, 0.01% or 0.001%): Neither form was efficacious
Log ([5]; 0.1%): 5.5
cfu/ml ([5]; 0.1%): 3.2E+05 cfu/ml
log reduction ([5]; 0.1%): −0.1
Log ([5]; 1%): 5.3
cfu/ml ([5]; 1%): 2.0E+05 cfu/ml
log reduction ([5]; 1%): 0.1
Log ([5]; 5%): 5.5
cfu/ml ([5]; 5%): 2.9E+05 cfu/ml
log reduction ([5]; 5%): −0.1
Log ([5]; 10%): 5.4
cfu/ml ([5]; 10%): 2.8E+05 cfu/ml
log reduction ([5]; 10%): 0.0
antimicrobial efficacy, conclusion ([5]; at 1% or 0.01%): Neither was efficacious
IL-8 release vs untreated control cells in presence of IL-22 (FIG. 1) ([6]; 0.01% up to 3%, IL-22 20 ng/ml, 24 hrs): did induce significantly the stimulation of the pro-inflammatory cytokine IL-8
anti-inflammatory potential in human primary epidermal cells in vitro ([6]; composition, measured per procedure of the Examples): greater than 220 pg/ml
stimulation of pro-inflammatory cytokine IL-1α (FIG. 2) ([1]; topical 0.1%, 1% and 10% in 70% ethanol/30% propylene glycol, 48 hours): did induce the stimulation of the pro-inflammatory cytokine IL-1α in a dose-dependent manner
stimulation of pro-inflammatory cytokine IL-8 vs untreated control cells (FIG. 3) (IL-8 cytokine release; 0.01% up to 3%, 24 hours, no IL-22): did induce significantly the stimulation of the pro-inflammatory biomarker cytokine IL-8
